These are literature values, as cited in PMC3074590 (Science (New York, N.Y.), 2010).

The data set relates to CXCR4. Conditions: characterized previously; no reference printed at this statement.

As for `CC1(C)CN2C(CSC(=NC3CCCCC3)NC3CCCCC3)=CSC2=N1` [IT1t], the “mode of inhibition of CXCL12” value was “competitive inhibitors of CXCL12”.
